From US10532066B2, “Surfactant lipids, compositions thereof, and uses thereof” (National Jewish Health, priority 2007, dated 2020) come the findings set out here.

“Also recorded” adds a separate entry of the source.

For experiment [1], the system named is MAPK, IkBα and MKP-1 in differentiated U937 cells. Briefly: Western blot of LPS induced MAPK and IkBα phosphorylation and MKP-1 expression. In kind it is cell-based, human. The note with it: LPS 10 ng/ml; for LPS-induced MKP-1 expression / LPS-induced phosphorylation of p38, ERK, JNK and IkBα: liposomes 200 μg/ml; for LPS-induced phosphorylation of p38, ERK, JNK and IkBα: 15-60 min. Here is the method: FIG. 4. POPG inhibits LPS induced MAPK and IkBα phosphorylation and MKP-1 expression. POPG liposomes (200 μg/ml) were added to monolayer cultures of differentiated U937 cells that received either no treatment or 10 ng/ml LPS. After incubating for the indicated time, cells were lysed using lysis buffer containing detergent, protease inhibitors and phosphatase inhibitors. Aliquots with 15 μg of protein from lysates were separated by SDS-PAGE and transferred onto nitrocellulose membranes. The amount of phosphorylation was detected using phospho-specific antibodies to p38MAPK, p42/p44 ERK, p46-p54 INK and phosphorylated IkBα. To determine equal loading of proteins between samples, the membranes were probed with rabbit polyclonal p46 INK, p42/p44 ERK, p38MAPK and IkBα antibodies. The expression of MKP-1 was detected with a polyclonal MKP-1 antibody.
FIG. 5. Quantification of POPG inhibition of LPS induced signaling. Western blot analysis as described in FIG. 4 was performed three or four times on separate samples and the intensity of phospho-p38, phospho-IkBα, phosphoERK, phospho JNK, phospho IkBα, total IkBα and MKP-1 was calculated using NIH Image J1.34 software.
FIG. 6. Molecular specificity in POPG action. Liposomes composed of POPC, DPPG or POPG were added to monolayer cultures of differentiated U937 cells that received either no treatment or 10 ng/ml LPS, as indicated. After 30 or 60 min cells were lysed and 15 μg of cellular protein from cultures was separated by SDS-PAGE and transferred onto nitrocellulose membranes. Phosphorylated and nonphosphorylated proteins were detected as described in FIG. 4.
FIG. 7. Comparative quantification of lipid dependent antagonism of LPS signaling. Western blot analysis was performed as described in FIG. 6 in three independent experiments. The intensity of the phosphorylated (p38, ERK, JNK and IkBα) and nonphosphorylated (total IkBα and MKP-1) proteins of interest was measured using NIH Image 0.1.34 software. Significance—*p<0.05, ** p<0.01.
Monolayers of unstimulated or stimulated macrophages were lysed on ice with 250 μl of ice-cold lysis buffer [50 mM Tris.HCl, pH 8.0, containing 137 mM NaCl, 10% (vol/vol) glycerol, 1% (vol/vol) Nonidet P-40, 1 mM NaF, 10 μg/ml leupeptin, 10 μg/ml aprotinin, 2 mM Na3VO4, and 1 mM phenylmethylsulfonyl fluoride (29). Insoluble nuclear material was pelleted by centrifugation at 14,000×g for 10 min at 4° C. and the supernatants were collected. 15 μg of protein from lysates was separated by SDS-PAGE and transferred onto nitrocellulose membranes (30). The blots were then washed in Tris-Tween-buffered saline [TTBS, 20 mM Tris-HCl buffer, pH 7.6, containing 137 mM NaCl and 0.05% (vol/vol) Tween 20], blocked with 5% (wt/vol) nonfat dry milk for 1 hour, and probed according to the method described by Towbin et. al. (30) with phospho-specific antibodies to p46-p54 JNK, p42/p44 ERK, and p38MAPK, or IkBα or with a polyclonal MKP-1 or IkBα antibodies in 5% (wt/vol) BSA dissolved in TTBS. With the use of horseradish peroxidase-conjugated secondary anti-rabbit or anti-mouse antibody, bound antibodies were detected by enhanced chemiluminescence (ECL plus, Amersham Biosciences, Piscataway, N.J.). To determine loading of proteins between samples, the membranes were probed with rabbit polyclonal p46 JNK, p42/p44 ERK, and p38MAPK antibodies.
(Immunoblotting shows a protein as a band on a membrane.)

Experiment [2] has as its target T1, LBP binding to CD14 (Homo sapiens, UniProt P08571).
T1 construct: purchased Cell Sciences Inc. (CD14); R&D systems (LBP)
T1 sequence (P08571 20-345 limits assumed): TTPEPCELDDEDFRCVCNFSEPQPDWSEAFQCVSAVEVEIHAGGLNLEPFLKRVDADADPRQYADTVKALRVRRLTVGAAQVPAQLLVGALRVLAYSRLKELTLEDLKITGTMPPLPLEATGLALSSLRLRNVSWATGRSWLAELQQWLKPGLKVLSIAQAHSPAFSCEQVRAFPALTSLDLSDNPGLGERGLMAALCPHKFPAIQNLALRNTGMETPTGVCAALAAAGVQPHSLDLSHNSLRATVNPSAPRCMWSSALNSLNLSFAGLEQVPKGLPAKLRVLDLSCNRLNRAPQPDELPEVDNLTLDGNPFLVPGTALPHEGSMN
Put plainly: Phospholipid competition for LBP-CD14 binding. The note with it: LBP 1 μg/ml, liposomes 20 μg/ml. On the procedure: CD14 (2 μg) or sTLR4 (100 ng) in aliquots of 20 μl of buffer B were pipeted onto a 96-well plate, and the solvent evaporated using a warm air dryer. […] The amount of bound LBP or MD-2 was detected using specific antibodies.

Regarding `CCCCCCCCCCCCCCCC(=O)OCC(COP(=O)(O)OCC(O)CO)OC(=O)CCCCCCCCCCCCCCC` (stereo not shown) [DPPG, dipalmitoyl-phosphatidylglycerol, reference compound], in experiment [1], the “LPS-induced MKP-1 expression” value was “neither POPC nor DPPG exerted a significant effect”; the “LPS-induced phosphorylation of p38, ERK, JNK and IkBα” value (from here on “LPS-induced phosphorylation of p38”) was “neither POPC nor DPPG exerted a significant effect”.

In the case of `CCCCCCCCCCCCCCCC(=O)OC[C@H](COP(=O)([O-])OCC[N+](C)(C)C)OC(=O)CCCCCCCCCCCCCCC` [DPPC, dipalmitoyl-phosphatidylcholine, reference compound], the “reduction of the interaction of LBP with CD14” value (“reduction … with CD14” for short) in experiment [2] is on record as “not exhibited”.

With phosphatidylinositol [PI], the “reduction … with CD14” value in experiment [2] is on record as “not exhibited”. Besides, in experiment [1], the “LPS-induced MKP-1 expression” value is listed as “reduced”; the “LPS-induced phosphorylation of p38” value is “reduced”.

With `CCCCCCCC/C=C\CCCCCCCC(=O)O[C@H](COC(=O)CCCCCCCCCCCCCCC)COP(=O)(O)OCC(O)CO` (stereo partly shown) [POPG, palmitoyl-oleoyl-phosphatidylglycerol], the “reduction … with CD14” value in experiment [2] was “approximately 40%”. Besides, the “LPS-induced reduction (degradation) of steady state IkBα” value in experiment [1] (POPG 200 μg/ml) is given as “abrogated the reduction; also recorded: remained constant”. In experiment [1], the “LPS-induced MKP-1 expression” value was “blocked the synthesis; also recorded: reduced to control levels; also recorded: potently inhibited”; the “LPS-induced phosphorylation of p38” value was “reduced; also recorded: eliminated the phosphorylation; also recorded: significantly reduces; also recorded: potently inhibited”.
